Measured values: ChEMBL document CHEMBL1201862, “PubChem BioAssay data set” (2004)
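96-well plates; 48 h exposure; 5 concentrations. Endpoints by linear interpolation between flanking doses. Not reached: highest tested concentration assigned. GI50: concentration for 50% inhibition of growth.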 The source made the active and inactive calls. Rule as the data show it: active = GI50 up to about 1.1 µM and inactive = higher.

How the values were obtained:
Test in all cases: NCI anticancer screen, dose series, 48 h
U-251 = tested on: U-251
HCC 2998 = tested on: HCC 2998
OVCAR-5 = tested on: OVCAR-5
HOP-62 = tested on: HOP-62
SK-OV-3 = tested on: SK-OV-3
NCI-H522 = tested on: NCI-H522
SF-539 = tested on: SF-539
OVCAR-3 = tested on: OVCAR-3
Malme-3M = tested on: Malme-3M
DU-145 = tested on: DU-145
SNB-19 = tested on: SNB-19
ACHN = tested on: ACHN
EKVX = tested on: EKVX
PC-3 = tested on: PC-3
Hs-578T = tested on: Hs-578T
UACC-257 = tested on: UACC-257
RXF 393 = tested on: RXF 393
MDA-MB-231 = tested on: MDA-MB-231
HOP-92 = tested on: HOP-92
IGROV-1 = tested on: IGROV-1

Compound	GI50 (U-251)	GI50 (HCC 2998)	GI50 (OVCAR-5)	GI50 (HOP-62)	GI50 (SK-OV-3)	GI50 (NCI-H522)	GI50 (SF-539)	GI50 (OVCAR-3)	GI50 (Malme-3M)	GI50 (DU-145)	GI50 (SNB-19)	GI50 (ACHN)	GI50 (EKVX)	GI50 (PC-3)	GI50 (Hs-578T)	GI50 (UACC-257)	GI50 (RXF 393)	GI50 (MDA-MB-231)	GI50 (HOP-92)	GI50 (IGROV-1)
CC1OC(OC2C(CO)OC(O[C@H]3CC[C@@]4(C)C(=CC[C@H]5[C@@H]6C[C@@H]7O[C@](O)(CC[C@@H](C)COC8OC(CO)C(O)C(O)C8O)[C@@H](C)[C@@H]7[C@@]6(C)CC[C@@H]54)C3)C(OC3OC(C)C(O)C(O)C3O)C2O)C(O)C(O)C1O (stereo partly drawn)	1.87 µM (inactive)	2.9 µM (inactive)	2.52 µM (inactive)	2.16 µM (inactive)	2.84 µM (inactive)	2.07 µM (inactive)	1.95 µM (inactive)	12.9 µM (inactive)	1.89 µM (inactive)	2.3 µM (inactive)	2.23 µM (inactive)	5.28 µM (inactive)	9.38 µM (inactive)	2.41 µM (inactive)	33.1 µM (inactive)	4.02 µM (inactive)	2.4 µM (inactive)	6.11 µM (inactive)		
Cc1nccn1S(=O)(=O)c1ccc(Br)cc1Br	44.7 µM (inactive)		35.1 µM (inactive)		41.8 µM (inactive)	25.7 µM (inactive)	22.6 µM (inactive)	22.7 µM (inactive)	50.8 µM (inactive)	42.9 µM (inactive)	25.9 µM (inactive)	54.1 µM (inactive)	26.9 µM (inactive)	33 µM (inactive)	41.1 µM (inactive)	34.9 µM (inactive)	23 µM (inactive)	19.1 µM (inactive)	26.7 µM (inactive)	41.8 µM (inactive)
O=C1N2CCc3c([nH]c4ccccc34)C23CC2CCCC12S3 (stereo not drawn)	> 50 µM (inactive)		> 50 µM (inactive)	> 50 µM (inactive)	> 50 µM (inactive)	> 50 µM (inactive)	> 50 µM (inactive)	39.4 µM (inactive)	27.6 µM (inactive)	39.4 µM (inactive)	> 50 µM (inactive)	37.3 µM (inactive)	47.2 µM (inactive)	24.7 µM (inactive)	22 µM (inactive)	18.2 µM (inactive)	> 50 µM (inactive)	> 50 µM (inactive)	29 µM (inactive)	24.8 µM (inactive)
C/C(=N\Nc1nc2ccccc2o1)c1ncccn1	0.0213 µM (active)	0.141 µM (active)	< 0.0267 µM (active)	0.0908 µM (active)	0.0312 µM (active)	< 0.01 µM (active)	0.043 µM (active)	0.0136 µM (active)	< 0.01 µM (active)	0.0811 µM (active)	0.163 µM (active)	< 0.0165 µM (active)	< 0.0172 µM (active)	< 0.0273 µM (active)	0.984 µM (active)	< 0.022 µM (active)		< 0.0208 µM (active)	0.145 µM (active)	0.0184 µM (active)
CN(C)CCNc1c([N+](=O)[O-])sc2ccc(Cl)cc12	18.3 µM (inactive)	15.7 µM (inactive)	> 100 µM (inactive)	12.2 µM (inactive)	25.5 µM (inactive)	10.8 µM (inactive)	14 µM (inactive)	> 100 µM (inactive)	26.9 µM (inactive)	80.4 µM (inactive)	26.2 µM (inactive)	6.01 µM (inactive)	44.7 µM (inactive)	13.4 µM (inactive)	21.3 µM (inactive)		19.1 µM (inactive)	17.3 µM (inactive)		26.1 µM (inactive)
O=C(/C=C/c1ccccc1)C[C@@H](O)C[C@@H]1CC=CC(=O)O1	8.69 µM (inactive)	5.93 µM (inactive)	20 µM (inactive)	16 µM (inactive)	14.3 µM (inactive)	2.64 µM (inactive)	3.57 µM (inactive)	3.75 µM (inactive)	14.2 µM (inactive)	17.2 µM (inactive)	15.9 µM (inactive)	12.7 µM (inactive)	17.1 µM (inactive)	16.3 µM (inactive)	> 33.4 µM (inactive)	13.6 µM (inactive)		14.4 µM (inactive)	3.88 µM (inactive)	6.85 µM (inactive)
C1=N\c2ccc(cc2)-c2ccc(cc2)/N=C\c2ccc(cc2)OCc2cccc(n2)COc2ccc/1cc2	45.5 µM (inactive)		> 100 µM (inactive)	27.3 µM (inactive)	61.2 µM (inactive)	34.5 µM (inactive)	> 100 µM (inactive)	> 100 µM (inactive)	33 µM (inactive)	> 100 µM (inactive)	38.9 µM (inactive)	> 100 µM (inactive)	45.8 µM (inactive)	> 100 µM (inactive)	18.2 µM (inactive)	> 100 µM (inactive)	42.2 µM (inactive)	> 100 µM (inactive)	> 100 µM (inactive)	> 100 µM (inactive)
CSc1c([S+](C)[O-])c2ccccc2n1C (stereo not drawn)		> 100 µM (inactive)	> 100 µM (inactive)	> 100 µM (inactive)	> 100 µM (inactive)	0.0142 µM (active)	> 100 µM (inactive)	> 100 µM (inactive)	> 100 µM (inactive)	> 100 µM (inactive)	> 100 µM (inactive)	> 100 µM (inactive)	> 100 µM (inactive)	> 100 µM (inactive)	> 100 µM (inactive)	> 100 µM (inactive)	> 100 µM (inactive)	> 100 µM (inactive)		> 100 µM (inactive)
Cc1cc(N(CCC#N)CCC#N)ccc1C(/N=N/c1ccc([N+](=O)[O-])cc1)=N\NC(=O)c1ccccc1	42.3 µM (inactive)	40.5 µM (inactive)	> 100 µM (inactive)	87.5 µM (inactive)	49.5 µM (inactive)	17 µM (inactive)	15 µM (inactive)	46.1 µM (inactive)	56.9 µM (inactive)	48 µM (inactive)	40.6 µM (inactive)	62.8 µM (inactive)	63.4 µM (inactive)	41.2 µM (inactive)	25.1 µM (inactive)	61.8 µM (inactive)	52.2 µM (inactive)	58.7 µM (inactive)		47 µM (inactive)
C=C(C)COc1cc(/N=C(/S)OC(C)C)ccc1Cl	16.9 µM (inactive)	15.5 µM (inactive)	15.7 µM (inactive)		19.3 µM (inactive)	14.9 µM (inactive)	16.1 µM (inactive)	15.8 µM (inactive)		16.7 µM (inactive)	18.8 µM (inactive)	17.1 µM (inactive)	11.8 µM (inactive)	14.7 µM (inactive)	20.4 µM (inactive)	17.3 µM (inactive)		15.4 µM (inactive)	13.6 µM (inactive)	16.6 µM (inactive)
CNC(=O)CCCNC(=O)CCCC(=O)OC	> 100 µM (inactive)	> 100 µM (inactive)	> 100 µM (inactive)	> 100 µM (inactive)	> 100 µM (inactive)	> 100 µM (inactive)	> 100 µM (inactive)	> 100 µM (inactive)	> 100 µM (inactive)	> 100 µM (inactive)	> 100 µM (inactive)	> 100 µM (inactive)	> 100 µM (inactive)	> 100 µM (inactive)	> 100 µM (inactive)	> 100 µM (inactive)		> 100 µM (inactive)	> 100 µM (inactive)	> 100 µM (inactive)
